Data from publication PMC7347136 (PLoS ONE, 2020).

Key:
Assay in all cases: Carna kinase panel screen
Format in all cases: biochemical
Settings in all cases: read-out: % Inhibition ± SD
MUSK = molecular target: T1, MUSK (Homo sapiens, UniProt O15146)
T1 construct: purchased Carna Biosciences
Method: (§1) IC50 values were determined from a 10-point concentration curve using ATP concentrations approximating Km values. […] The percentage inhibition of each test solution was calculated, which allowed the IC50 value to be determined from concentration versus percentage inhibition curves by fitting to a four parameter logistic curve.

IRAK4 = molecular target: T2, IRAK4 (Homo sapiens, UniProt Q9NWZ3)
T2 construct: purchased Carna Biosciences
Method: as §1

MELK = molecular target: T3, MELK (Homo sapiens, UniProt Q14680)
T3 construct: purchased Carna Biosciences
Method: as §1

BRSK2 = molecular target: T4, BRSK2 (Homo sapiens, UniProt Q8IWQ3)
T4 construct: purchased Carna Biosciences
Method: as §1

CDK6 = molecular target: T5, CDK6 (Homo sapiens, UniProt Q00534)
T5 construct: purchased Carna Biosciences
Method: as §1

CaMK1a = molecular target: T6, CaMK1a (Homo sapiens, UniProt Q14012)
T6 construct: purchased Carna Biosciences
Method: as §1

CSK = molecular target: T7, CSK (Homo sapiens, UniProt P41240)
T7 construct: purchased Carna Biosciences
Method: as §1

JAK1 = molecular target: T8, JAK1 (Homo sapiens, UniProt P23458)
T8 construct: purchased Carna Biosciences
T8 sequence (P23458 whole entry): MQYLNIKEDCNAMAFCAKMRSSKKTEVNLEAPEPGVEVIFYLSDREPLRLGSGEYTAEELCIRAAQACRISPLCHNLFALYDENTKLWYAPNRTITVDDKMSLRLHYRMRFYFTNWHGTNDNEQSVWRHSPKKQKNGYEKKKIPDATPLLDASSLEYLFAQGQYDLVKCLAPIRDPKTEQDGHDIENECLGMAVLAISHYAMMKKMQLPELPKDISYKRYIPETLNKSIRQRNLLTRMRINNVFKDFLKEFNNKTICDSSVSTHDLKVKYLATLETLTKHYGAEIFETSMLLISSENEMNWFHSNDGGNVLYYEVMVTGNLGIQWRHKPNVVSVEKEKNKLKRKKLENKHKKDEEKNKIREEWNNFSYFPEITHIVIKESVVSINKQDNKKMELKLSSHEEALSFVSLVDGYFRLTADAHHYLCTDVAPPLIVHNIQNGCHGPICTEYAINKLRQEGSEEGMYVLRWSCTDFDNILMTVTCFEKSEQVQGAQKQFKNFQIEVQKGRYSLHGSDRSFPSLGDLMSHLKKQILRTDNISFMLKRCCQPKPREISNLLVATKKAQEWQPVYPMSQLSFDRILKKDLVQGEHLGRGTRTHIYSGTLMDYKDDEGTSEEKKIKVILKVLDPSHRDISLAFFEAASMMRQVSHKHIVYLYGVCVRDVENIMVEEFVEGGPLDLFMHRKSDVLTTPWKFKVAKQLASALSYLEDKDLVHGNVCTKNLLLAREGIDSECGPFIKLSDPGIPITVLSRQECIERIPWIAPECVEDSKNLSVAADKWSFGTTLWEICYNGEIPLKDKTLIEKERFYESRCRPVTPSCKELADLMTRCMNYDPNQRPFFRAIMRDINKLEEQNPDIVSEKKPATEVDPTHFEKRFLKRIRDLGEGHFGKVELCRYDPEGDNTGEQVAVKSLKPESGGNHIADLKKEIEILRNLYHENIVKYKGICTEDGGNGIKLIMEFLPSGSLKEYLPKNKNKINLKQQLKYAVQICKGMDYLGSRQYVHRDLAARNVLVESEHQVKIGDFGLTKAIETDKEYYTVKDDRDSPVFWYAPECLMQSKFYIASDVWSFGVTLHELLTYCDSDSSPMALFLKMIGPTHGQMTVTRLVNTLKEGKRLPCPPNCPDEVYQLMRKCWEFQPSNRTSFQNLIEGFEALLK
Method: as §1

DYRK2 = molecular target: T9, DYRK2 (Homo sapiens, UniProt Q92630)
T9 construct: purchased Carna Biosciences
T9 sequence (Q92630 whole entry): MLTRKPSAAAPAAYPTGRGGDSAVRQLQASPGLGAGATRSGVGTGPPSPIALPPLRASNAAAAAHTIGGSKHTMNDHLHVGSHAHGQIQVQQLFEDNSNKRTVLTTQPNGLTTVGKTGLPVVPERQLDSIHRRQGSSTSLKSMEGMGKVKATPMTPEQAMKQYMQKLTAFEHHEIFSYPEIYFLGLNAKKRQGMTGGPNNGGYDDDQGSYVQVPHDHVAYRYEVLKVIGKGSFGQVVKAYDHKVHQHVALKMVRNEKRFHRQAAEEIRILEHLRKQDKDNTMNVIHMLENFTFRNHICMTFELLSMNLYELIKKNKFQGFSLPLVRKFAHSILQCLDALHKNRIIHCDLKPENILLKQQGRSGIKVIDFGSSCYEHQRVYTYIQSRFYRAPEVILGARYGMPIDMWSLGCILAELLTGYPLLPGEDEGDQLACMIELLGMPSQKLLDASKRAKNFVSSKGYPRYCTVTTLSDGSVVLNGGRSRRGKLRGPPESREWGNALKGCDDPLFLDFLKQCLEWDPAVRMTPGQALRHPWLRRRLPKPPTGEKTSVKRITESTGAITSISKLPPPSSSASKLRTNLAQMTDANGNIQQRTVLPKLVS
Method: as §1

CLK1 = molecular target: T10, CLK1 (Homo sapiens, UniProt P49759)
T10 construct: purchased Carna Biosciences
Method: as §1

EphB3 = molecular target: T11, EphB3 (Homo sapiens, UniProt P54753)
T11 construct: purchased Carna Biosciences
Method: as §1

MST4 = molecular target: T12, MST4 (Homo sapiens, UniProt Q9P289)
T12 construct: purchased Carna Biosciences
Method: as §1

ROS = molecular target: T13, ROS (Homo sapiens, UniProt P08922)
T13 construct: purchased Carna Biosciences
Method: as §1

CK1a = molecular target: T14, CK1a (Homo sapiens, UniProt P48729)
T14 construct: purchased Carna Biosciences
Method: as §1

ACK = molecular target: T15, ACK (Homo sapiens, UniProt Q07912)
T15 construct: purchased Carna Biosciences
Method: as §1

CGK2 = molecular target: T16, CGK2 (Homo sapiens, UniProt Q13237)
T16 construct: purchased Carna Biosciences
Method: as §1

EphA1 = molecular target: T17, EphA1 (Homo sapiens, UniProt P21709)
T17 construct: purchased Carna Biosciences
T17 sequence (P21709 26-976): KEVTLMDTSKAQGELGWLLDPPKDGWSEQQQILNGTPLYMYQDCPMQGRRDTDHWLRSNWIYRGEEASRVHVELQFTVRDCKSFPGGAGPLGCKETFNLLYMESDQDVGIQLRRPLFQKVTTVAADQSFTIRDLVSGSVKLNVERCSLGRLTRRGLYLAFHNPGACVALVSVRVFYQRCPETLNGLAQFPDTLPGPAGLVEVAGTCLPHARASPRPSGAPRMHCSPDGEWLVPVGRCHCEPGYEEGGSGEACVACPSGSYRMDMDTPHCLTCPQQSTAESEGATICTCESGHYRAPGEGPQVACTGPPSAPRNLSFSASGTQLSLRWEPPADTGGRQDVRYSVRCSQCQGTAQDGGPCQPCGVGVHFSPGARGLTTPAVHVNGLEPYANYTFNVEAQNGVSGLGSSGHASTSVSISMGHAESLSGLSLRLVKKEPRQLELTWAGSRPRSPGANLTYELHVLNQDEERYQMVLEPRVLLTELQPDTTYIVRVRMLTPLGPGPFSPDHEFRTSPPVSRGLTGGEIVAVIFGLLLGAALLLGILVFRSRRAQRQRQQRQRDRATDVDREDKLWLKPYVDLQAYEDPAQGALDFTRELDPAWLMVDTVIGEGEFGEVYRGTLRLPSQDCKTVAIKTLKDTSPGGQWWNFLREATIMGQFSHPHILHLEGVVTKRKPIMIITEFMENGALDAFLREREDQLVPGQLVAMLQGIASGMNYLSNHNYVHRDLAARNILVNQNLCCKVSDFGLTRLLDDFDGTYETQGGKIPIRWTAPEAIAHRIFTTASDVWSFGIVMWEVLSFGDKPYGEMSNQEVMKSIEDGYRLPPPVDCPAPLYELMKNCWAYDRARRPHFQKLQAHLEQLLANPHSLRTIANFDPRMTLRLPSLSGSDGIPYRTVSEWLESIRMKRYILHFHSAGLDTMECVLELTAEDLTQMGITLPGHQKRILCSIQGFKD
Method: as §1

PKCb1 = molecular target: T18, PKCb1 (Homo sapiens, UniProt P05771)
T18 construct: purchased Carna Biosciences
Method: as §1

ROCK2 = molecular target: T19, ROCK2 (Homo sapiens, UniProt O75116)
T19 construct: purchased Carna Biosciences
Method: as §1

p38d = molecular target: T20, p38d (Homo sapiens, UniProt O15264)
T20 construct: purchased Carna Biosciences
Method: as §1

MER = molecular target: T21, MER (Homo sapiens, UniProt Q12866)
T21 construct: purchased Carna Biosciences
T21 sequence (Q12866 21-999): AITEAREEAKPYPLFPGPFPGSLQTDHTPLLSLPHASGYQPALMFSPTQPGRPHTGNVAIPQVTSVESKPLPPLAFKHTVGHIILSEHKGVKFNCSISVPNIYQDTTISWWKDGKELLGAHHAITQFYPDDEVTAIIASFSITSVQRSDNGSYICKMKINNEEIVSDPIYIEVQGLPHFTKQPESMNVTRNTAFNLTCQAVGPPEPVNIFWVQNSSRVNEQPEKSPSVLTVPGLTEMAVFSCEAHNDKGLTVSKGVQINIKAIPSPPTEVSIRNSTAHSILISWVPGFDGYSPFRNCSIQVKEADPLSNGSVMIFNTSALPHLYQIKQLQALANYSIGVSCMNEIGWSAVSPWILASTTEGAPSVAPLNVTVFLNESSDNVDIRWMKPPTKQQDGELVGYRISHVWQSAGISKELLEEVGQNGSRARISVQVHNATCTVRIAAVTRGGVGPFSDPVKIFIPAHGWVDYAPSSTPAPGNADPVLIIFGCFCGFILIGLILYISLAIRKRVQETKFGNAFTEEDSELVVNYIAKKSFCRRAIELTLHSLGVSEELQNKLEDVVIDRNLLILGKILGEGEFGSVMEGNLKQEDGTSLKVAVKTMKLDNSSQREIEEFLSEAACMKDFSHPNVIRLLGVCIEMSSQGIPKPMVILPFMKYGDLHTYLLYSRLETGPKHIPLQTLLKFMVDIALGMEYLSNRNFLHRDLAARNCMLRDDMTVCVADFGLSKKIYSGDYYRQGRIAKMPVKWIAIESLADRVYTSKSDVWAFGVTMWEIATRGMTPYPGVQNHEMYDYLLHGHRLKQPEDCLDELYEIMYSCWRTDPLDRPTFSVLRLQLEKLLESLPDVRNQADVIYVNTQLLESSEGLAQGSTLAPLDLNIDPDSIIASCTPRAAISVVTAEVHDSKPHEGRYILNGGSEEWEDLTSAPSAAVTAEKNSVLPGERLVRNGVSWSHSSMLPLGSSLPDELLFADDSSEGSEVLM
Method: as §1

PKR = molecular target: T22, PKR (Homo sapiens, UniProt P19525)
T22 construct: purchased Carna Biosciences
Method: as §1

HIPK3 = molecular target: T23, HIPK3 (Homo sapiens, UniProt Q9H422)
T23 construct: purchased Carna Biosciences
Method: as §1

DCAMKL2 = molecular target: T24, DCAMKL2 (Homo sapiens, UniProt Q8N568)
T24 construct: purchased Carna Biosciences
Method: as §1

CDC2 = molecular target: T25, CDC2 (Homo sapiens, UniProt P06493)
T25 construct: purchased Carna Biosciences
T25 sequence (P06493 whole entry): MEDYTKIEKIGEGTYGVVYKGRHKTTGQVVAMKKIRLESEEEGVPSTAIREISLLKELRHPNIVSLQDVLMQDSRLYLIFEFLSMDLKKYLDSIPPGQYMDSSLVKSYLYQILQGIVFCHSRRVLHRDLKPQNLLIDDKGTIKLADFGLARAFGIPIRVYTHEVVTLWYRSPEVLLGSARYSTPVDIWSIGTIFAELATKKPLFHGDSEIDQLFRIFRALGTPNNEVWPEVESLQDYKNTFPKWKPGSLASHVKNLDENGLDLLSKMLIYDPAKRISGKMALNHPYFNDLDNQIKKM
T25 sequence (P14635 whole entry partner): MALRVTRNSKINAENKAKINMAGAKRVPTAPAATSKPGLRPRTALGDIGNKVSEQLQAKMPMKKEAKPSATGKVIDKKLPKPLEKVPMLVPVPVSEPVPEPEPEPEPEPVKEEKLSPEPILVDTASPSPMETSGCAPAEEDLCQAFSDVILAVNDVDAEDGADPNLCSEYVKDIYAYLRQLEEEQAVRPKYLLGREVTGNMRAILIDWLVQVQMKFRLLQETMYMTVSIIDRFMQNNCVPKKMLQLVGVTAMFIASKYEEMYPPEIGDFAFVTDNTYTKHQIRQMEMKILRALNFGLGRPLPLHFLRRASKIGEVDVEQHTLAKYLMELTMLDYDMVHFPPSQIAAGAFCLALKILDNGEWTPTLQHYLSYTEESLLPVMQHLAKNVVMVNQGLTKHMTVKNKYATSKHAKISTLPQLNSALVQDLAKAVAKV
Method: as §1

TSSK2 = molecular target: T26, TSSK2 (Homo sapiens, UniProt Q96PF2)
T26 construct: purchased Carna Biosciences
Method: as §1

IRAK1 = molecular target: T27, IRAK1 (Homo sapiens, UniProt P51617)
T27 construct: purchased Carna Biosciences
Method: as §1

BRK = molecular target: T28, BRK (Homo sapiens, UniProt Q13882)
T28 construct: purchased Carna Biosciences
Method: as §1

PYK2 = molecular target: T29, PYK2 (Homo sapiens, UniProt Q14289)
T29 construct: purchased Carna Biosciences
Method: as §1

p38b = molecular target: T30, p38b (Homo sapiens, UniProt Q15759)
T30 construct: purchased Carna Biosciences
Method: as §1

MAP3K1 = molecular target: T31, MAP3K1 (Homo sapiens, UniProt Q13233)
T31 construct: purchased Carna Biosciences
Method: as §1

DLK = molecular target: T32, DLK (Homo sapiens, UniProt Q12852)
T32 construct: purchased Carna Biosciences
Method: as §1

PAK2 = molecular target: T33, PAK2 (Homo sapiens, UniProt Q13177)
T33 construct: purchased Carna Biosciences
Method: as §1

MSK1 = molecular target: T34, MSK1 (Homo sapiens, UniProt O75582)
T34 construct: purchased Carna Biosciences
Method: as §1

PKCe = molecular target: T35, PKCe (Homo sapiens, UniProt Q02156)
T35 construct: purchased Carna Biosciences
Method: as §1

KIT[T670I] = molecular target: T36, KIT[T670I] (Homo sapiens, UniProt P10721, T670I)
T36 construct: purchased Carna Biosciences
Method: as §1

CK2a1 = molecular target: T37, CK2a1 (Homo sapiens, UniProt P68400)
T37 construct: purchased Carna Biosciences
Method: as §1

PKN1 = molecular target: T38, PKN1 (Homo sapiens, UniProt Q16512)
T38 construct: purchased Carna Biosciences
Method: as §1

p38a = molecular target: T39, p38a (Homo sapiens, UniProt Q16539)
T39 construct: purchased Carna Biosciences
T39 sequence (Q16539 whole entry): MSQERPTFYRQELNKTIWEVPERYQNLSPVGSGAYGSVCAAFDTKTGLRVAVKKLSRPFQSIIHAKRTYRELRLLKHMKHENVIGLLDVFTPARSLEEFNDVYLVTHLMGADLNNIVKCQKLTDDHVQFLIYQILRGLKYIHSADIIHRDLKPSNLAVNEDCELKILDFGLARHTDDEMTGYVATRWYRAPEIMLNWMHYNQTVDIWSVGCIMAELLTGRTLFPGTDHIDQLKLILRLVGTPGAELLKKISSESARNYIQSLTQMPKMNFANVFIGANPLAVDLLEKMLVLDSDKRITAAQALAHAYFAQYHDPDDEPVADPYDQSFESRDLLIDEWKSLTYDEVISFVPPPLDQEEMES
Method: as §1

AurB = molecular target: T40, AurB (Homo sapiens, UniProt Q96GD4)
T40 construct: purchased Carna Biosciences
Method: as §1

PDK1 = molecular target: T41, PDK1 (Homo sapiens, UniProt O15530)
T41 construct: purchased Carna Biosciences
Method: as §1

EphB4 = molecular target: T42, EphB4 (Homo sapiens, UniProt P54760)
T42 construct: purchased Carna Biosciences
Method: as §1

EphA8 = molecular target: T43, EphA8 (Homo sapiens, UniProt P29322)
T43 construct: purchased Carna Biosciences
Method: as §1

EphA3 = molecular target: T44, EphA3 (Homo sapiens, UniProt P29320)
T44 construct: purchased Carna Biosciences
Method: as §1

Compound: CC[C@H](Nc1nc(NCc2cnc(C)cc2C)c2ncn(C(C)C)c2n1)[C@@H](C)O [Fadraciclib, 2-pentanol, 3-[[6-[[(4,6-dimethyl-3-pyridinyl)methyl]amino]-9-(1-methylethyl)-9Hpurin-2-yl]amino]-, (2R,3S)]
- inhibition at 1 µM (MUSK): 11.4 ± 0.3%
- inhibition at 1 µM (IRAK4): -10.1 ± 0.1%
- inhibition at 1 µM (MELK): 5 ± 0.1%
- inhibition at 1 µM (BRSK2): 1.1%
- inhibition at 1 µM (CDK6): 27 ± 0.9%
- inhibition at 1 µM (CaMK1a): -14.8 ± 0.2%
- inhibition at 1 µM (CSK): -18.7 ± 0.4%
- inhibition at 1 µM (JAK1): -3.1%
- inhibition at 1 µM (DYRK2): -1.8 ± 0.1%
- inhibition at 1 µM (CLK1): 70.2 ± 6.8%
- inhibition at 1 µM (EphB3): 0%
- inhibition at 1 µM (MST4): -2.1%
- inhibition at 1 µM (ROS): -2 ± 0.1%
- inhibition at 1 µM (CK1a): 8.2 ± 0.3%
- inhibition at 1 µM (ACK): -0.7%
- inhibition at 1 µM (CGK2): -12.6 ± 0.5%
- inhibition at 1 µM (EphA1): 5.1%
- inhibition at 1 µM (PKCb1): -1.9%
- inhibition at 1 µM (ROCK2): 4.2%
- inhibition at 1 µM (p38d): -16 ± 0.6%
- inhibition at 1 µM (MER): -9.1 ± 0.1%
- inhibition at 1 µM (PKR): 1.1%
- inhibition at 1 µM (HIPK3): -1.1%
- inhibition at 1 µM (DCAMKL2): -12.4 ± 0.1%
- inhibition at 1 µM (CDC2): 57.9 ± 1.3%
- inhibition at 1 µM (TSSK2): 0.7%
- inhibition at 1 µM (IRAK1): 1.6 ± 0.1%
- inhibition at 1 µM (BRK): 2.4 ± 0.1%
- inhibition at 1 µM (PYK2): 11.7 ± 0.2%
- inhibition at 1 µM (p38b): -19 ± 0.2%
- inhibition at 1 µM (MAP3K1): -6.6 ± 0.1%
- inhibition at 1 µM (DLK): 0.8%
- inhibition at 1 µM (PAK2): -2.9%
- inhibition at 1 µM (MSK1): 5.5 ± 0.4%
- inhibition at 1 µM (PKCe): 7.6 ± 0.1%
- inhibition at 1 µM (KIT[T670I]): -9.2 ± 0.2%
- inhibition at 1 µM (CK2a1): -22.8 ± 0.7%
- inhibition at 1 µM (PKN1): -17.7 ± 0.1%
- inhibition at 1 µM (p38a): -13.3 ± 0.3%
- inhibition at 1 µM (AurB): 4.2 ± 0.2%
- inhibition at 1 µM (PDK1): -5.4 ± 0.1%
- inhibition at 1 µM (EphB4): 3.6 ± 0.1%
- inhibition at 1 µM (EphA8): 4.2 ± 0.2%
- inhibition at 1 µM (EphA3): 1.6 ± 0.1%
